Test results as given in PMC10781691, “Vertical pathway inhibition of receptor tyrosine kinases and BAD with synergistic efficacy in triple negative breast cancer” (NPJ Precision Oncology, 2024).
pIC50: −log10 of the molar value.

Assays:
MDA-MB-231 cells = experiment: Cell survival after siRNA-BAD or scrambled control and NCK; assay type: cell-based, human
Source text: To confirm the functional specificity of NCK to BAD, the effect of NCK treatment after siRNA-mediated depletion of BAD expression was examined in MDA-MB-231 cells. […] Consistent with previous findings[32]–[34], no significant changes in cell viability nor CASPASE 3/7 activity were observed upon transfection of siRNA directed to the BAD transcript (Fig. 2g–i).

[1] = test system: BAD phosphorylation at Ser75 and Ser118; experiment: Western blot of BAD phosphorylation at Ser75 and Ser118 in TNBC cells; assay type: cell-based, human; conditions: MDA-MB-231 and BT549 cells
Procedure: To compare the binding affinity of NCK and NPB towards BAD, we performed surface plasmon resonance (SPR) measurement by immobilizing BAD protein on a sensor chip with NCK or NPB as analyte. Representative reference-subtracted overlaid sensorgrams and the kinetic parameters are specified in Fig. 2d and Supplementary Fig. 6A. […] Additionally, the pharmacological inhibition of BAD phosphorylation by NCK or NPB in TNBC cells was evaluated. […] Furthermore, the comparative potencies of NPB and NCK were evaluated in eight TNBC cell lines using total cell number assay in 2D culture and cell viability in 3D culture (Supplementary Fig. 6C, D).

LCK = test system: LCK; design: method as in SelleckChem; conditions: ref SelleckChem; cited from earlier work
Flt1 = test system: Flt1; design: method as in SelleckChem; conditions: ref SelleckChem; cited from earlier work

Oc1ccccc1C(c1cccnc1)N1CCN(c2cccc(Cl)c2Cl)CC1 (centres unmarked) [NCK, 2-((4-(2,3-dichlorophenyl)piperazin-1-yl)(pyridin-3-yl)methyl) phenol]
cell viability vs vehicle (MDA-MB-231 cells; MDA-MB-231, 5 μM NCK): decreased cell viability | effect on cell viability and CASPASE 3/7 activity after siRNA-mediated depletion of BAD (MDA-MB-231 cells; MDA-MB-231, siRNA-BAD, 5 μM NCK): abolished the effect of NCK | levels of pBADSer75/BAD and pBADSer118/BAD [1]: did not alter

O=C(Nc1ccc(OC(F)(F)F)cc1)c1sccc1NCc1ccnc2ccccc12 [OSI-930]
pIC50 (LCK): 7.66 | pIC50 (Flt1): 8.10
